Earlier results, collected in US20230149377A1, “PHARMACEUTICAL METHODS” (ELEVAR THERAPEUTICS, INC., priority 2018, published 2023).
Counter-ions that a name gives are not always drawn.

Columns and labels:
[1] = observed safety issues, approved drugs
[2] = single dose
[3] = Phase 1, 46 patients
[4] = test system: tumor bearing animal models
[5] = 81 mg rivoceranib dose (100 mg mesylate), healthy volunteers
VEGFR-2 = VEGFR-2 (Homo sapiens, UniProt P35968); settings: nonclinical
gastric cancer = settings: Phase 3

Chain of VEGFR-2 (P35968 20-1356, species assumed): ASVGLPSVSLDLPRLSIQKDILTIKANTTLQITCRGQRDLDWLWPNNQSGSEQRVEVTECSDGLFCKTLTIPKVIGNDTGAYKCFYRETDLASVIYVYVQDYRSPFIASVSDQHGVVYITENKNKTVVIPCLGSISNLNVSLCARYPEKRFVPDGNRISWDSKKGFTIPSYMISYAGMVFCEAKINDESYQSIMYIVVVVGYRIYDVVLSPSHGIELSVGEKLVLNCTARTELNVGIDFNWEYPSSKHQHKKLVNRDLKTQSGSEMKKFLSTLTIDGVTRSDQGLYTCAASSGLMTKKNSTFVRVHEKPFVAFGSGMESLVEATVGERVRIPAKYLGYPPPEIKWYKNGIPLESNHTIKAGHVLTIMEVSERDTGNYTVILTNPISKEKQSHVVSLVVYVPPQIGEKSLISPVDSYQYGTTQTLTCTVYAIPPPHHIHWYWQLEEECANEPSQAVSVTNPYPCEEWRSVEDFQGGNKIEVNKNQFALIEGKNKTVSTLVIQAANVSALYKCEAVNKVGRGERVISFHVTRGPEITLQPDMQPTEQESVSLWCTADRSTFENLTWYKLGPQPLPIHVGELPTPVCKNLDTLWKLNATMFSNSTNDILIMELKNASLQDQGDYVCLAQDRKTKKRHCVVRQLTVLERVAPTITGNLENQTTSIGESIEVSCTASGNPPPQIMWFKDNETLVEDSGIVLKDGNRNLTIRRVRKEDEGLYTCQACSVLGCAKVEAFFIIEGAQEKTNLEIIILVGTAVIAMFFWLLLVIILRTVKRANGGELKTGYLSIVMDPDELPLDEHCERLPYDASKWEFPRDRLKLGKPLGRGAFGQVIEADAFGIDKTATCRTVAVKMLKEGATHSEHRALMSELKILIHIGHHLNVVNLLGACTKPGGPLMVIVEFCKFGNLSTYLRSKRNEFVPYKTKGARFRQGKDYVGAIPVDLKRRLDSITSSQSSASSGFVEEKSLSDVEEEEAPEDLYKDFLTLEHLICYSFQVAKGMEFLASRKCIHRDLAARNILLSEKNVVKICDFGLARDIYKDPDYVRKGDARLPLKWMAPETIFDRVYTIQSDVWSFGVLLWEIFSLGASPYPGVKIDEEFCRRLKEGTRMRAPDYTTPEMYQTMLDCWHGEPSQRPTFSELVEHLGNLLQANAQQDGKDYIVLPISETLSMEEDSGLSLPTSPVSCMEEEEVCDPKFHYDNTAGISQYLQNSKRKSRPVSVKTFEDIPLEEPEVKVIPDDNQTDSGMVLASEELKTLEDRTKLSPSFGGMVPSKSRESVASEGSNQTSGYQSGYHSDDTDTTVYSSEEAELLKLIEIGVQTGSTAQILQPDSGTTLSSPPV

Row | Compound | Safety Profile: Central nervous system [1] | Safety Profile: Liver/Bile [1] | Safety Profile: Heart [1] | Safety Profile: Musculoskeletal/bone [1] | Safety Profile: Renal [1] | other results
1 | C#Cc1cccc(Nc2ncnc3cc(OCCOC)c(OCCOC)cc23)c1 [Erlotinib] | R | R |  |  |  | Safety Profile: Blood/lymph system [1]: R
2 | N#CC1(c2ccc(NC(=O)c3cccnc3NCc3ccncc3)cc2)CCCC1 [rivoceranib mesylate] |  |  |  |  |  | AUC0-∞ in Chinese and Japanese subjects compared to Caucasian subjects ([2]; healthy male): slightly higher; Cmax in Chinese and Japanese subjects compared to Caucasian subjects ([2]; healthy male): slightly higher; t1/2 ([2]; similar amongst Caucasian, Japanese and Chinese groups): 7.5 to 8 h; maximum tolerated dose [3]: 850 mg
3 | CS(=O)(=O)CCNCc1ccc(-c2ccc3ncnc(Nc4ccc(OCc5cccc(F)c5)c(Cl)c4)c3c2)o1 [Lapatinib] | R |  | R |  |  | 
4 | CCN(CC)CCNC(=O)c1c(C)[nH]c(/C=C2\C(=O)Nc3ccc(F)cc32)c1C [Sunitinib] | R | R | R |  |  | 
5 | Cc1nc(Nc2ncc(C(=O)Nc3c(C)cccc3Cl)s2)cc(N2CCN(CCO)CC2)n1 [Dasatinib] | R | R |  | R | R | 
6 | Cc1ccc(Nc2nccc(N(C)c3ccc4c(C)n(C)nc4c3)n2)cc1S(N)(=O)=O [Pazopanib] |  |  | R |  |  | 
7 | Cc1cn(-c2cc(NC(=O)c3ccc(C)c(Nc4nccc(-c5cccnc5)n4)c3)cc(C(F)(F)F)c2)cn1 [Nilotinib] | R |  |  | R | R | Safety Profile: GI [1]: R; Safety Profile: Vascular [1]: R
8 | CNC(=O)c1cc(Oc2ccc(NC(=O)Nc3ccc(Cl)c(C(F)(F)F)c3)cc2)ccn1 [Sorafenib] | R | R | R | R | R | Safety Profile: GI [1]: R; Safety Profile: Lung airways [1]: R
9 | N#CC1(c2ccc(NC(=O)c3cccnc3NCc3ccncc3)cc2)CCCC1 [rivoceranib, N-[4-(1-cyanocyclopentyl)phenyl]-2-{[(pyridin-4-yl)methyl]amino} pyridine-3-carboxamide] |  |  |  |  |  | side effects in animals ([4]; at efficacious doses): minimal side effects; efficacy in various tumor bearing animal models ([4]; nonclinical): efficacious; Food effects on the bioavailability [5]: minimal; binding to VEGFR-2 (VEGFR-2): selectively binds; Grade 3/4 adverse reactions that occurred in more than 2% of patients (gastric cancer): hypertension, HFS, proteinuria, fatigue, anorexia, and elevated aminotransferase; median overall survival (OS) compared to placebo (gastric cancer): prolonged; median progression-free survival (PFS) compared to placebo (gastric cancer): prolonged
